# pKi: −log10 of the molar value.
# Biological target: T1, Human Neuropeptide Y2 Receptor (Homo sapiens, UniProt P49146)
# T1 construct: purchased CHEMICON HTS066M
# T1 sequence (P49146 1-381): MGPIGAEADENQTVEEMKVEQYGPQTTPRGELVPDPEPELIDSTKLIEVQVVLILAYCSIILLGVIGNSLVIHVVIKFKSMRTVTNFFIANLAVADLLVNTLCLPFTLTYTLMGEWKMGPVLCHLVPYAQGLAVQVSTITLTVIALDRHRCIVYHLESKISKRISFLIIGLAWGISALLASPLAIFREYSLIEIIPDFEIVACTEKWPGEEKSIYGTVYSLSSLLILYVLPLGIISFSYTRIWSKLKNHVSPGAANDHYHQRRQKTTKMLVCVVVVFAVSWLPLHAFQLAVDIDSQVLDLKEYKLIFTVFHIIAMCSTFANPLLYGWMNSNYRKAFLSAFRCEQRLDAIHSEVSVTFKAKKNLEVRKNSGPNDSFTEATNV
# Experiment: Radioligand binding competition assay (RLB)
# Details: Table 3; human 125I-PYY (1-36) 0.02 nM, Y2 receptor membranes; read-out: Ki
# Procedure, shortened: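 Competition binding at commercial human NPY Y2 membrane preparations, 0.5 μg protein per well, 2 h incubation at room temperature. Bound and free ligand were separated on GF/C filters and counted; IC50 was fitted by nonlinear regression.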
row,SMILES,pKi
1,"CC(C)CC(=O)N[C@@H](C)C(=O)N1CCC[C@H]1C(=O)N[C@@H](CCC(=O)O)C(=O)N[C@@H](CCCCNC(=O)COCCOCCNC(=O)COCCOCCNC(=O)CC[C@H](NC(=O)CCCCCCCCCCCCCCCCC(=O)O)C(=O)O)C(=O)N1CCC[C@H]1C(=O)N[C@@H](CCC(=O)O)C(=O)N[C@@H](CCC(=O)O)C(=O)N[C@@H](CC(=O)O)C(=O)NCC(=O)N[C@@H](CO)C(=O)N1CCC[C@H]1C(=O)N[C@@H](CCC(=O)O)C(=O)N[C@@H](CCC(=O)O)C(=O)N[C@@H](CC(C)C)C(=O)N[C@@H](CCC(N)=O)C(=O)N[C@@H](CCCNC(=N)N)C(=O)N[C@@H](Cc1ccc(O)cc1)C(=O)N[C@@H](Cc1ccc(O)cc1)C(=O)N[C@H](C(=O)N[C@@H](CCC(=O)O)C(=O)N[C@@H](CC(C)C)C(=O)N[C@@H](CCCNC(=N)N)C(=O)N[C@@H](Cc1c[nH]cn1)C(=O)N[C@@H](Cc1ccc(O)cc1)C(=O)N[C@@H](Cc1ccc(O)cc1)C(=O)N[C@@H](CC(N)=O)C(=O)N[C@@H](Cc1c[nH]c2ccccc12)C(=O)N[C@@H](CC(C)C)C(=O)N[C@H](C(=O)N[C@@H](CCCNC(=N)N)C(=O)N[C@@H](CCC(N)=O)C(=O)N[C@@H](CCCNC(=N)N)C(=O)N[C@@H](Cc1ccc(O)cc1)C(N)=O)[C@@H](C)O)C(C)C [Compound 182, N{alpha-4}-(3-methylbutanoyl)-N{epsilon-7}-[2-(2-{2-[2-(2-{2-[(4S)-4-carboxy-4-(17-carboxyheptadecanamido)butanamido]ethoxy}ethoxy)acetamido]ethoxy}ethoxy)acetamido]-[4A,7K,9E,12G,18Q,22V,23E,28Y,30W,31L]hPYY (4-36)]",8.46
2,"CC(C)CC(=O)N[C@@H](C)C(=O)N1CCC[C@H]1C(=O)N[C@@H](CCC(=O)O)C(=O)N[C@@H](CCCCNC(=O)COCCOCCNC(=O)COCCOCCNC(=O)CC[C@H](NC(=O)CCCCCCCCCCCCCCCCC(=O)O)C(=O)O)C(=O)N1CCC[C@H]1C(=O)N1CCC[C@H]1C(=O)N[C@@H](CCC(=O)O)C(=O)N[C@@H](CC(=O)O)C(=O)N[C@@H](C)C(=O)N[C@@H](CO)C(=O)N1CCC[C@H]1C(=O)N[C@@H](CCC(=O)O)C(=O)N[C@@H](CCC(=O)O)C(=O)N[C@@H](CC(C)C)C(=O)N[C@@H](CCC(N)=O)C(=O)N[C@@H](CCCNC(=N)N)C(=O)N[C@@H](Cc1ccc(O)cc1)C(=O)N[C@@H](Cc1ccc(O)cc1)C(=O)N[C@H](C(=O)N[C@@H](CO)C(=O)N[C@@H](CC(C)C)C(=O)N[C@@H](CCCNC(=N)N)C(=O)N[C@@H](Cc1c[nH]cn1)C(=O)N[C@@H](Cc1ccc(O)cc1)C(=O)N[C@@H](Cc1ccc(O)cc1)C(=O)N[C@@H](CC(N)=O)C(=O)N[C@@H](Cc1c[nH]c2ccccc12)C(=O)N[C@@H](CC(C)C)C(=O)N[C@H](C(=O)N[C@@H](CCCNC(=N)N)C(=O)N[C@@H](CCC(N)=O)C(=O)N[C@@H](CCCNC(=N)N)C(=O)N[C@@H](Cc1ccc(O)cc1)C(N)=O)[C@@H](C)O)C(C)C [Compound 183, N{alpha-4}-(3-methylbutanoyl)-N{epsilon-7}-[2-(2-{2-[2-(2-{2-[(4S)-4-carboxy-4-(17-carboxyheptadecanamido)butanamido]ethoxy}ethoxy)acetamido]ethoxy}ethoxy)acetamido]-[4A,7K,9P,18Q,22V,28Y,30W,31L]hPYY (4-36)]",9.15
3,"CC(C)CC(=O)N[C@@H](C)C(=O)N1CCC[C@H]1C(=O)N[C@@H](CCC(=O)O)C(=O)N[C@@H](CCCCNC(=O)COCCOCCNC(=O)COCCOCCNC(=O)CC[C@H](NC(=O)CCCCCCCCCCCCCCCCC(=O)O)C(=O)O)C(=O)N1CCC[C@H]1C(=O)N[C@@H](CCC(=O)O)C(=O)N[C@@H](CCC(=O)O)C(=O)N[C@@H](C)C(=O)N[C@@H](C)C(=O)N[C@@H](CO)C(=O)N1CCC[C@H]1C(=O)N[C@@H](CCC(=O)O)C(=O)N[C@@H](CCC(=O)O)C(=O)N[C@@H](CC(C)C)C(=O)N[C@@H](CCC(N)=O)C(=O)N[C@@H](CCCNC(=N)N)C(=O)N[C@@H](Cc1ccc(O)cc1)C(=O)N[C@@H](Cc1ccc(O)cc1)C(=O)N[C@H](C(=O)N[C@H](C(=O)N[C@@H](CC(C)C)C(=O)N[C@@H](CCCNC(=N)N)C(=O)N[C@@H](Cc1c[nH]cn1)C(=O)N[C@@H](Cc1ccc(O)cc1)C(=O)N[C@@H](Cc1ccc(O)cc1)C(=O)N[C@@H](CC(N)=O)C(=O)N[C@@H](Cc1c[nH]c2ccccc12)C(=O)N[C@@H](CC(C)C)C(=O)N[C@H](C(=O)N[C@@H](CCCNC(=N)N)C(=O)N[C@@H](CCC(N)=O)C(=O)N[C@@H](CCCNC(=N)N)C(=O)N[C@@H](Cc1ccc(O)cc1)C(N)=O)[C@@H](C)O)[C@@H](C)O)C(C)C [Compound 184, N{alpha-4}-(3-methylbutanoyl)-N{epsilon-7}-[2-(2-{2-[2-(2-{2-[(4S)-4-carboxy-4-(17-carboxyheptadecanamido)butanamido]ethoxy}ethoxy)acetamido]ethoxy}ethoxy)acetamido]-[4A,7K,9E,11A,18Q,22V,23T,28Y,30W,31L]hPYY (4-36)]",8.69
4,"CC(C)CC(=O)N[C@@H](C)C(=O)N1CCC[C@H]1C(=O)N[C@@H](CCC(=O)O)C(=O)N[C@@H](CCCCNC(=O)COCCOCCNC(=O)COCCOCCNC(=O)CC[C@H](NC(=O)CCCCCCCCCCCCCCCCC(=O)O)C(=O)O)C(=O)N1CCC[C@H]1C(=O)N[C@@H](CCC(=O)O)C(=O)N[C@@H](CCC(=O)O)C(=O)N[C@@H](CC(=O)O)C(=O)N[C@@H](C)C(=O)N[C@@H](CO)C(=O)N1CCC[C@H]1C(=O)N[C@@H](CCC(=O)O)C(=O)N[C@@H](CCC(=O)O)C(=O)N[C@@H](CC(C)C)C(=O)N[C@@H](CCC(N)=O)C(=O)N[C@@H](CCCNC(=N)N)C(=O)N[C@@H](Cc1ccc(O)cc1)C(=O)N[C@@H](Cc1ccc(O)cc1)C(=O)N[C@H](C(=O)N[C@@H](CO)C(=O)N[C@@H](CC(C)C)C(=O)N[C@@H](CCCNC(=N)N)C(=O)N[C@@H](Cc1c[nH]cn1)C(=O)N[C@@H](CCC(N)=O)C(=O)N[C@@H](Cc1ccc(O)cc1)C(=O)N[C@@H](CC(N)=O)C(=O)N[C@@H](Cc1c[nH]c2ccccc12)C(=O)N[C@@H](CC(C)C)C(=O)N[C@H](C(=O)N[C@@H](CCCNC(=N)N)C(=O)N[C@@H](CCC(N)=O)C(=O)N[C@@H](CCCNC(=N)N)C(=O)N[C@@H](Cc1ccc(O)cc1)C(N)=O)[C@@H](C)O)C(C)C [Compound 187, N{alpha-4}-(3-methylbutanoyl)-N{epsilon-7}-[2-(2-{2-[2-(2-{2-[(4S)-4-carboxy-4-(17-carboxyheptadecanamido)butanamido]ethoxy}ethoxy)acetamido]ethoxy}ethoxy)acetamido]-[4A,7K,9E,18Q,22V,27Q,28Y,30W,31L]hPYY (4-36)]",8.56

# Source: patent US12559529B2, “NPY2 receptor agonists” (Boehringer Ingelheim International GmbH, priority 2019, dated 2026)
